# In US20250090507A1, “Methods of Treating Cancer With a B-RAF Inhibitor” (MapKure, LLC, priority 2022, published 2025):
# “Also recorded” adds a separate entry of the source.
# What was measured:
# [1] = system: circulating tumor DNA; assay: Circulating tumor DNA variant allele frequency in melanoma pts; type: in vivo, human; conditions: ctDNA, subset of melanoma pts
# Description: Peripheral blood samples were collected at specified timepoints as described in the schedule of assessments to be used for the longitudinal evaluation ctDNA by molecular (NGS) methodologies as pharmacodynamic biomarkers associated with response or resistance.
# [2] = system: RAF family of serine/threonine kinases; assay: Preclinical RAF kinase inhibition; type: biochemical
# [3] = Permeability; type: in vitro ADME
# [4] = Hygroscopicity; type: physicochemical; conditions: solid form, Form I
structure (smiles),measurement,setting,value
"O=C1CCc2c(Oc3ccc4c(c3)[C@H]3[C@H](NC(=O)Nc5cc(F)c(F)cc5F)[C@H]3O4)ccnc2N1 [Compound A, 1-((1S,1aS,6bS)-5-((7-oxo-5,6,7,8-tetrahydro-1,8-naphthyridin-4-yl)oxy)-1a,6b-dihydro-1H-cyclopropa[b]benzofuran-1-yl)-3-(2,4,5-trifluorophenyl)urea]","maximum reduction of VAF, range",[1],98.7-99.9%
same,maximum reduction of variant allele frequency (VAF) of detected mutations,[1]; across evaluated subjects,99.3%
same,Potency against RAF monomer & dimer,[2]; monomer versus dimer,equal potency
same,Inhibitory activity against RAF kinases,[2]; preclinical,potent inhibitory activity; also recorded: highly potent
same,Permeability,[3]; class in words,High
same,Papp,[3]; not told,> 10 ×10⁻⁶ cm/s
same,Hygroscopicity,[4],Hygroscopic
